Reference: US20200368239A1, “TREATMENT OF AMYOTROPHIC LATERAL SCLEROSIS USING TRAMETINIB” (priority 2019, published 2020)

Key:
in vivo = details: mouse, po, 0.8 mg/kg
Experimental: Trametinib (Medchemexpress, Monmouth Junction, N.J.) was micronized and suspended in the vehicle containing 5% mannitol, 1.5% hydroxypropyl methylcellulose and 0.2% sodium lauryl sulfate. For pharmacokinetic analysis, 0.05, 0.2 and 0.8 mg/kg of trametinib were orally administered in to 7-week-old normal mice (n=5 per group) as a single administration. Mice were sacrificed at each identical time points.

SOD1-G93A ALS model mice = assay: Survival of SOD1-G93A ALS model mice; type: in vivo; details: 0.1 or 0.2 mg/kg/day oral
Experimental: Therapeutic efficacy of trametinib was examined in the SOD1-G93A transgenic mouse model, the most widely used animal model for ALS research. The SOD1-G93A ALS model mice, TgN [B6SJL-Tg (SOD1-G93A) 1Gur], were purchased from Jackson Laboratory (ME, USA) and bred at 21±2° C., 35-65% RH.
In addition, immunohistochemical analysis was performed with the spinal cords of the mice to evaluate the efficacy of trametinib on the tissue, cellular, and molecular level.
After the onset of symptoms (around 16 weeks after birth), trametinib was orally administered to two groups of ALS model mice every day at the doses of 0.1 mg/kg or 0.2 mg/kg (mpk). As controls, wild type (WT) mice and ALS model mice were treated with vehicle.
Mice with motor performance score at or lower than 3 were euthanized as they were not able to feed themselves. Survival days for each group of mice were counted.

MEK1/2 = assay: Western blot of pERKs and ERKs in mice whole brain lysates after oral administration; type: in vivo; details: wild type mice
Experimental: FIG. 2 provides a representative image of western blot analysis of pERKs and ERKs in mice whole brain lysates. ERKs were included as a loading control.
Cells and tissues were washed twice with ice-cold phosphate-buffered saline (PBS) and extracted by homogenizing with Ripa buffer (10 mM HEPES, 1.5 mM MgCl2, 10 mM KCl, 0.01 M DTT, protease inhibitors, pH 7.9). Lysates were centrifuged at 13,000 rpm for 20 min at 4° C. and the protein content in the supernatant was determined using Bradford assay (Bio-rad, Hercules, Calif.). Protein from each sample was subjected to 8%-15% SDS-PAGE, and the resolved proteins were transferred to nitrocellulose or polyvinylidene fluoride membrane. The membranes were blocked with 5% nonfat milk powder in Tris-buffered saline/Tween 20 (TBST) for 1 h at room temperature, then incubated with anti-phospho-ERK (Cell signaling), anti-ERK (Cell signaling), anti-LAMP1 (Abcam), anti-LC3 (Cell signaling), anti-cathepsin B (Cell signaling), anti-p62 (Cell signaling), anti-p62 (5114, Cell signaling), anti-phospho-mTOR (5536, Cell signaling), anti-mTOR (2983, Cell signaling), anti-phospho-ULK1 (14202, Cell signaling), anti-ULK1 (8054, Cell signaling), anti-TFEB (852501, Biolegend), and anti-GAPDH (Cell signaling) overnight at 4° C. […] The detected signals were quantified using a LAS-4000 system (Fuji Film, Tokyo, Japan).

patients with ALS = assay: Phase 1/2a clinical trial in patients with ALS; type: in vivo, human
Excerpt: Patients are selected based on the following criteria for a sequential dose-escalation, randomized, active-controlled, phase ½a clinical trial to evaluate the safety, tolerability and efficacy of trametinib in patients with ALS.
Patients diagnosed as definite, probable or probable-laboratory-supported ALS according to El Escorial Criteria. Patients of less than 2 years after the onset of ALS. Patients who meet the criteria of K-ALSFRS-R score (total score of at least 30 and score of at least 2 for each item) and forced vital capacity (% FVC≥70%, or 60%≤% FVC<70% with K-ALSFRS-R score ≥3 for items 10 to 12).
Patients with primary lateral sclerosis, progressive muscular atrophy or lower motor neuron disease. […] Patients who have permanently ceased the administration of riluzole due to lack of tolerability and/or efficacy. […]
As primary outcome measures, safety and tolerability of trametinib is tested based on observation of adverse events. As secondary outcome measures, K-ALSFRS-R (Korean version of Amyotrophic Lateral Sclerosis Functional Rating Scale-Revised) scores are measured in the patients by independent outcome assessors. Additionally, change in forced vital capacity (FVC) from baseline, trough concentrations of trametinib in cerebrospinal fluid (CSF) and trough concentrations of trametinib in plasma are further measured.

[1] = system: spinal cord neurons of SOD1-G93A ALS model mice; assay: Histological and immunohistochemical analysis of spinal cord of SOD1-G93A ALS model mice; type: in vivo; details: vs vehicle-treated ALS mice
Experimental: After the behavioral tests above were completed, the spinal cords of the euthanized mice were removed, fixed, and processed. The spinal cord tissue was sliced to a thickness of 10 μm with the CM1860 cryomicrotome (Leica Biosystems, Germany). Immunohistochemical analysis was performed using various staining methods to examine the spinal cord tissue, motor neurons, and protein expression in the motor neurons.
Through Nissl staining, the condition and distribution of neurons can be examined. Nissl staining solution contained 0.1% w/v Cresyl Violet (Sigma, C-5042, USA) and 0.1% v/v glacial acetic acid.
In order to examine the condition of the motor neurons, the spinal cord tissues were subjected to NeuN immunofluorescent staining to observe all types of neurons (red in FIG. 11) and SMI-32 staining (SMI-32 antibody binds specifically to motor neurons) to observe motor neurons (green in FIG. 11).
A longitudinal section of the spinal cord tissue was stained with tau antibody to examine the condition of the axonal nerve tract.
A cross-section of the spinal cord was stained with Tuj 1, an axonal marker, to examine the condition of axons in the tested mice.
MAP2 staining was performed to observe the condition of dendrites projecting out of the neurons.
(§1) Mice were perfused with ice-cold phosphate buffered saline (PBS) and followed by 4% paraformaldehyde (PFA). Spinal cords were dissected and analyzed by immunohistochemistry. For cryosections, spinal cords were prepared into sections of 10 μm slices. For immunostaining, the sections were incubated with anti-Map2 (Millipore, Burlington, Mass.), anti-Tuj 1 (Cell signaling, Danvers, Mass.), anti-SMI-32 (Biolegend, San Diego, Calif.), anti-LAMP1 (Abcam, Cambridge, UK), or anti-LC3 (Cell signaling) antibodies. This step was followed by incubation with Alexa Fluor 488-conjugated anti-mouse IgG (Thermo, Waltham, Mass.), Alexa Fluor 488-conjugated anti-rat IgG (Thermo), Alexa Fluor 555-conjugated anti-rabbit IgG secondary antibodies (Thermo). The sections were counterstained with DAPI. The immunofluorescent images were captured using a LSM700 Laser-Scanning confocal microscope (Carl Zeiss, Heildenheim, Germany). For Nissl staining, the sections were incubated with Nissl staining solution (0.1% w/v Cresyl Violet (Sigma, C-5042, USA) and 0.1% v/v glacial acetic acid). The length of the Map2 and Tuj 1 positive dendrites and axons were measured using Icy program. The LC3-LAMP1 co-localization was observed under a confocal microscopy using a LSM700 microscope (Carl Zeiss).

[2] = system: mRNA expression in whole brain; assay: Bulk RNA-Seq of whole brains of wild type mice after oral administration; type: in vivo; details: FC ≥1.3, FDR <0.05
Experimental: To evaluate the transcriptional profiles in the brain, bulk RNA-Seq was performed using whole brains of wild type mice following oral administration of trametinib. Gene ontology terms were enriched at each weekly time point, indicating the relevance of cellular function such as synaptic potential, nervous system development, immune response, and incorrect protein folding in a temporal pattern (FIG. 3A). Decrease in MEK-ERK signaling with trametinib administration during week 1 and week 2 of administration can be indirectly confirmed through the decrease in expression of FGF receptor signaling and GPCR signaling related genes.
In the second week, we observed neuroblast proliferation-related and axon growth-related gene expression, followed by expression of genes for immune reaction and incorrect protein modification reaction in the third and fourth week, respectively. It is important to note that increase in the gene-sets associated with neurogenesis and the induction of lysosomal activity both occurred within the four-week period, as illustrated by the gene expression heatmap (FIGS. 4A-4B). […] Their FCs were between −2.26 and 3.71.
RNA was isolated from the mice whole brain and cDNA libraries for RNA sequencing were prepared using the TruSeq Stranded mRNA Prep Kit (Illumina, San Diego, Calif.) according to the manufacturer's guidelines (l). The libraries were sequenced on the Illumina Nextseq500 platform and the reads were mapped to the reference Mouse mm10 genome using Tophat v2.0.13. The total number of reads mapped to the transcriptomes were 24,532 genes and the genes with 0 count in at least one sample were removed before differential expression analysis. There was a total of 18,727 genes after the removal of genes with 0 count. To define differentially expressed genes (DEG), we set up a stringent statistic cutoff of fold change (FC) of ≥1.3 and a false discovery rate (FDR)<0.05. A total of 500 DEGs was identified between the vehicle-treated group and trametinib-treated group in the first week, 498 DEGs in the second week, 446 genes in the third week and 538 genes in the fourth week. Gene ontology was performed with Gene Ontology program of the gene ontology consortium. Heatmap analysis was performed by R studio using the DEG list related with synapse, neurogenesis and lysosome.

[3] = system: LAMP1 / LC3 in spinal cord of SOD1-G93A ALS model mice; assay: LC3 and LAMP1 immunofluorescence in spinal cord tissues (autophagosome-lysosome fusion); type: in vivo; details: vs vehicle-treated ALS model mice
Experimental: as §1

CC(=O)Nc1cccc(-n2c(=O)n(C3CC3)c(=O)c3c(Nc4ccc(I)cc4F)n(C)c(=O)c(C)c32)c1 [Trametinib, acetamide, N-[3-[3-cyclopropyl-5-[(2-fluoro-4-iodophenyl)amino]-3,4,6,7-tetrahydro-6,8-dimethyl-2,4,7-trioxopyrido[4,3-d]pyrimidin-1(2H)-yl]phenyl]]
Kp (in vivo): 0.477 | survival compared to the vehicle-treated groups (SOD1-G93A ALS model mice): prolonged | pERK expression in the brain (MEK1/2): significant decrease in pERK expression | symptoms associated with ALS in treated patients (patients with ALS; 0.5, 1 or 2 mg trametinib): reduction of a behavioral, physiological and/or pathological symptom associated with ALS | level of one or more markers after treatment (patients with ALS; some patients): change in the level of one or markers | axon condition (Tuj 1 staining, cross-section) [1]: relatively well protected long axons | axonal tract condition (tau staining, longitudinal section) [1]: reduced number of abnormal axonal spheroids | dendrite condition (MAP2 staining) [1]: quite well protected | motor neuron shape (SMI-32 and NeuN staining) [1]: elongated neurite shape was relatively well preserved | number of neurons in spinal cord (Nissl staining) [1]: retained more neurons than the vehicle-treated group | number of differentially expressed genes (DEGs) vs vehicle-treated group ([2]; first week): 500 | number of differentially expressed genes (DEGs) vs vehicle-treated group ([2]; fourth week): 538 | number of differentially expressed genes (DEGs) vs vehicle-treated group ([2]; second week): 498 | number of differentially expressed genes (DEGs) vs vehicle-treated group ([2]; third week): 446 | LAMP1 signal (lysosome marker) [3]: LAMP1 signal was restored | fusion of lysosome and autophagosome (LC3-LAMP1 co-localization) [3]: restored as well
